Experimental data from article PMC11111408, “Concurrent inhibition of oncogenic and wild-type RAS-GTP for cancer therapy” (Nature, 2024).
Where “and” joins values, the source holds several entries; their conditions need not be identical. Equal values may be shown once.

Experiments:
[1] = test system: NCI-H358 and MIA PaCa-2 cells expressing RTK constructs; test: pERK (MSD) in NCI-H358 and MIA PaCa-2 cells expressing exogenous RTK or RTK fusion constructs; format: cell-based, human
[2] = molecular target: NRAS^Q61K (Homo sapiens, UniProt P01111+P62937, Q61K); test: RAS binding affinity of compound-bound CYPA (Kd2), SPR; settings: steady state SPR, (95% CI)
[3] = test system: antigen specific CD8+ T cells, C57BL/6J mice; test: OVA peptide vaccination, CD8+ T cell response; format: in vivo, mouse; settings: individual mice; for IFNγ production by ELISpot: 25 mg/kg PO daily, 25 mg/kg
Experimental: Mice were euthanized on day 15 after treatment start, and spleens were harvested and assessed for frequency of antigen specific (H-2Kb [sequence] tetramer positive) CD8 + T cells by flow cytometry (a) and for IFNγ production by ELISpot.
Briefly, bone marrow was isolated from the femurs and tibias of 6-8 week-old female C57BL/6J mice (Jackson Laboratory). Bone marrow cells were plated in complete RPMI containing 10% FBS, 1 mM Sodium Pyruvate, mM HEPES, 1x MEM Non-Essential Amino Acids, and supplemented with GMCSF (Peprotech) at 20 ng/ml. On day 10, 0.5 ng/ml IL-4 (Peptotech) was added to the media. 50% of the media was replaced with fresh GMCSF-containing media on culture days 6, 8, and 10. […] 100% of the media was replaced on culture days 12 and 13. To activate BMDCs prior to vaccination, 0.5 μg/ml CpG (Invivogen, tlrl-1668) and 1 μg/ml LPS (Sigma Aldrich, L5418) were added to the media on day 13. On culture day 14, activated BMDCs were pulsed with OVA peptide ([sequence]) (1 μg/ml, Anaspec, AS-60193-1) for 2 hours and washed 3 times in serum-free RPMI. 1x10^6 peptide-pulsed, activated BMDCS were injected intravenously into each mouse on day 0 and day 8. […] After 15 days of treatment, mice were euthanized and spleens were harvested. Spleens were mechanically dissociated into single-cell suspension, incubated at 4°C for 20 minutes with Mouse Fc blocking agent (anti-CD16/32, Biolegend) and Live/Dead blue Viability Dye (ThermoFisher), and 20 minutes with cell staining antibody mix. […] Murine IFN𝛄 ELISpot (ImmunoSpot, CTL) was performed according to manufacturer’s protocol. Briefly, spleens were mechanically dissociated into single-cell suspension. […] Plates were incubated at 37°C, 5% CO2 for 24 hours before staining and analysis on the CTL ImmunoSpot S6 Universal M2 Analyzer.

[4] = test system: NCI-H441, HPAC and SW620 CDX models; test: CDX models, RMC-7977 versus SHP2 and MEK inhibitors; settings: three KRAS^G12X models; RMC-7977 10 mg kg^−1 once daily, RMC-4550 20 mg kg^−1 every 2 days, cobimetinib 2.5 mg kg^−1 once daily, alone or in combination
Experimental: Data are mean ± s.e.m. of 3–18 mice per group.
Female BALB/c nude mice, NOD SCID and NSG mice 6-8 weeks old from Beijing Vital River/VR Laboratory Animal Co., LTD, Beijing AniKeeper Biotech Co., Ltd., Shanghai Sino-British SIPPR/BK Laboratory Animal Co., LTD and The Jackson Laboratory were used. Animals were housed in polycarbonate cages, in an environmentally monitored, well ventilated room maintained at a constant temperature of 20-26°C and relative humidity of 40-80%. Fluorescent lighting provided illumination approximately 12 hours per day. Each mouse was inoculated at the right flank with tumor cells (2x10^6-1x10^7) in 100-200 µL of media/PBS supplemented with Matrigel (1:1). Treatments were started when the average tumor size reached 100-250 mm^3. […] Mice on studies were weighed and tumor measurements collected twice weekly. Human primary cancer xenograft models were generated using fresh cancer tumor fragments obtained from hospitals with informed consent from the patients in accordance with protocols approved by the Hospital Institutional Ethical Committee (IEC). Tumor fragments were serial-passaged in BABL/c nude mice and then cryopreserved. Cryopreserved tumors were recovered by implantation in BALB/c nude mice and further serial passaged and frozen for study implantation use. Recovered tumor fragments of about 15-30 mm3 in size from each model were implanted into right flanks of Balb/c nude mice. Treatment started when average tumor volume reached 100-250mm^3. For efficacy study, Animals were assigned to study groups using stratified randomization based upon their tumor volumes (n=3-10/group). […] Animals were treated for 28 days (or up to 110 for selected models) or an earlier time if tumor burden reached humane endpoint. Mean ± s.e.m was plotted in the waterfall plots. The dashed line on waterfall plot indicates a 10% reduction in tumor volume from baseline. […] Body weights were collected twice a week during the study. For single-dose pharmacokinetic/pharmacodynamics (PK/PD) study, mice were randomized into treatment groups when mean tumor volume reached 400-600 mm^3.

CCn1c(-c2cc(N3CCN(C4CC4)CC3)cnc2[C@H](C)OC)c2c3cc(ccc31)-c1csc(n1)C[C@H](NC(=O)[C@H]1[C@@H]3COC[C@@H]31)C(=O)N1CCC[C@H](N1)C(=O)OCC(C)(C)C2 [RMC-7977]
pERK inhibition in MiaPaCa2 RTK fusion overexpression cells treated with RMC-7977 ([1]; FGFR3-TACC3, RMC-7977 11.111 nM): 7.76 and 6.95 and 7.39 and 7.30 | pERK inhibition in MiaPaCa2 RTK fusion overexpression cells treated with RMC-7977 ([1]; FGFR3-TACC3, RMC-7977 33.333 nM): 4.29 and 4.25 and 4.22 | pERK inhibition in MiaPaCa2 RTK fusion overexpression cells treated with RMC-7977 ([1]; FGFR3-TACC3, RMC-7977 100.000 nM): 3.04 and 3.39 and 3.61 and 3.12 | pERK in NCI-H358 RTK overexpression cells treated with RMC-7977 ([1]; GFP, RMC-7977 0.0152 nM): 115.00 and 107.70 | pERK inhibition in H358 RTK overexpression cells ([1]; GFP, RMC-7977 0.0152 nM): 88.72 and 97.32 | pERK in NCI-H358 RTK overexpression cells treated with RMC-7977 ([1]; GFP, RMC-7977 0.0457 nM): 126.84 and 117.32 | pERK inhibition in H358 RTK overexpression cells ([1]; GFP, RMC-7977 0.0457 nM): 102.39 and 94.00 | pERK in NCI-H358 RTK overexpression cells treated with RMC-7977 ([1]; GFP, RMC-7977 0.41 nM): 51.59 and 78.61 | pERK inhibition in H358 RTK overexpression cells ([1]; GFP, RMC-7977 0.41 nM): 66.43 and 65.41 | pERK inhibition in MiaPaCa2 RTK fusion overexpression cells treated with RMC-7977 ([1]; GFP, RMC-7977 0.412 nM): 27.42 and 30.00 and 31.02 and 30.72 | pERK inhibition in MiaPaCa2 RTK fusion overexpression cells treated with RMC-7977 ([1]; GFP, RMC-7977 1.235 nM): 9.02 and 12.77 and 12.06 and 11.06 | pERK in NCI-H358 RTK overexpression cells treated with RMC-7977 ([1]; GFP, RMC-7977 11.11 nM): 4.80 | pERK inhibition in H358 RTK overexpression cells ([1]; GFP, RMC-7977 11.11 nM): 7.16 and 4.70 | pERK inhibition in MiaPaCa2 RTK fusion overexpression cells treated with RMC-7977 ([1]; GFP, RMC-7977 11.111 nM): 3.33 and 3.53 and 3.95 and 3.59 | pERK in NCI-H358 RTK overexpression cells treated with RMC-7977 ([1]; GFP, RMC-7977 33.33 nM): 2.56 and 2.82 | pERK inhibition in H358 RTK overexpression cells ([1]; GFP, RMC-7977 33.33 nM): 3.17 and 2.48 | pERK inhibition in MiaPaCa2 RTK fusion overexpression cells treated with RMC-7977 ([1]; GFP, RMC-7977 33.333 nM): 3.43 and 3.24 and 2.97 and 2.93 | pERK in NCI-H358 RTK overexpression cells treated with RMC-7977 ([1]; GFP, RMC-7977 100.00 nM): 2.07 and 1.93 | pERK inhibition in H358 RTK overexpression cells ([1]; GFP, RMC-7977 100.00 nM): 2.60 and 2.58 | pERK inhibition in MiaPaCa2 RTK fusion overexpression cells treated with RMC-7977 ([1]; GFP, RMC-7977 100.000 nM): 3.01 and 2.87 and 2.65 and 2.84 | pERK in NCI-H358 RTK overexpression cells treated with RMC-7977 ([1]; GFP, RMC-7977 300.00 nM): 2.17 and 2.42 | pERK inhibition in H358 RTK overexpression cells ([1]; GFP, RMC-7977 300.00 nM): 2.46 and 2.59 | pERK in NCI-H358 RTK overexpression cells treated with RMC-7977 ([1]; HER2, RMC-7977 0.0152 nM): 111.00 and 102.34 | pERK inhibition in H358 RTK overexpression cells ([1]; HER2, RMC-7977 0.0152 nM): 107.19 and 89.20 | pERK in NCI-H358 RTK overexpression cells treated with RMC-7977 ([1]; HER2, RMC-7977 0.0457 nM): 106.57 and 84.47 | pERK inhibition in H358 RTK overexpression cells ([1]; HER2, RMC-7977 0.0457 nM): 86.86 and 85.86 | pERK in NCI-H358 RTK overexpression cells treated with RMC-7977 ([1]; HER2, RMC-7977 0.41 nM): 72.44 and 63.75 | pERK inhibition in H358 RTK overexpression cells ([1]; HER2, RMC-7977 0.41 nM): 63.34 and 59.01 | pERK in NCI-H358 RTK overexpression cells treated with RMC-7977 ([1]; HER2, RMC-7977 11.11 nM): 2.66 | pERK inhibition in H358 RTK overexpression cells ([1]; HER2, RMC-7977 11.11 nM): 6.01 and 6.18 | pERK in NCI-H358 RTK overexpression cells treated with RMC-7977 ([1]; HER2, RMC-7977 33.33 nM): 1.70 and 1.64 | pERK inhibition in H358 RTK overexpression cells ([1]; HER2, RMC-7977 33.33 nM): 5.40 and 5.32 | pERK in NCI-H358 RTK overexpression cells treated with RMC-7977 ([1]; HER2, RMC-7977 100.00 nM): 1.42 and 1.69 | pERK in NCI-H358 RTK overexpression cells treated with RMC-7977 ([1]; HER2, RMC-7977 300.00 nM): 2.02 and 1.78 | pERK in NCI-H358 RTK overexpression cells treated with RMC-7977 ([1]; RET M918T, RMC-7977 0.0152 nM): 93.23 and 141.77 | pERK inhibition in H358 RTK overexpression cells ([1]; RET M918T, RMC-7977 0.0152 nM): 96.21 and 105.26 | pERK in NCI-H358 RTK overexpression cells treated with RMC-7977 ([1]; RET M918T, RMC-7977 0.0457 nM): 91.92 and 151.65 | pERK inhibition in H358 RTK overexpression cells ([1]; RET M918T, RMC-7977 0.0457 nM): 91.15 and 96.00 | pERK in NCI-H358 RTK overexpression cells treated with RMC-7977 ([1]; RET M918T, RMC-7977 0.41 nM): 60.67 and 71.79 | pERK inhibition in H358 RTK overexpression cells ([1]; RET M918T, RMC-7977 0.41 nM): 61.29 and 64.34 | pERK inhibition in H358 RTK overexpression cells ([1]; RET M918T, RMC-7977 3.70 nM): 20.58 and 17.35 | pERK in NCI-H358 RTK overexpression cells treated with RMC-7977 ([1]; RET M918T, RMC-7977 11.11 nM): 4.81 and 4.27 | pERK inhibition in H358 RTK overexpression cells ([1]; RET M918T, RMC-7977 11.11 nM): 7.08 and 6.42 | pERK in NCI-H358 RTK overexpression cells treated with RMC-7977 ([1]; RET M918T, RMC-7977 33.33 nM): 2.17 and 2.02 | pERK inhibition in H358 RTK overexpression cells ([1]; RET M918T, RMC-7977 33.33 nM): 3.13 and 3.07 | pERK in NCI-H358 RTK overexpression cells treated with RMC-7977 ([1]; RET M918T, RMC-7977 100.00 nM): 1.44 and 1.22 | pERK inhibition in H358 RTK overexpression cells ([1]; RET M918T, RMC-7977 100.00 nM): 1.99 and 2.21 | pERK in NCI-H358 RTK overexpression cells treated with RMC-7977 ([1]; RET M918T, RMC-7977 300.00 nM): 1.32 | pERK inhibition in H358 RTK overexpression cells ([1]; RET M918T, RMC-7977 300.00 nM): 2.03 and 1.88 | Kd [2]: 72.4 nM | % Antigen specific CD8 T cells ([3]; spleen, day 15, 25 mg/kg PO daily, OVA peptide vaccinated C57BL/6J mice): 1.46% and 1.22% and 0.72% | IFNγ production by ELISpot ([3]; splenocytes stimulated with SIINFEKL): 1885 and 890 and 922 | IFNγ production by ELISpot ([3]; splenocytes, no stim): 35 and 80 and 53 | anti-tumour activity [4]: deep regressions in all three models
